The source of these data is patent US9981975B2, “Pyrrolotriazine compounds as tam inhibitors” (Incyte Corporation, priority 2016, dated 2018).

Holding throughout (format): biochemical
One assay has as its target c-Mer (Homo sapiens (Human), UniProt Q12866). Briefly: TAM Enzymatic Assay (HTRF), Mer. Particulars: 60 min, room temperature. The method in brief:
(§1)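 HTRF kinase assay in 50 mM HEPES pH 7.5, 10 mM MgCl2, 1 mM EGTA, 0.01% NP-40, 2 mM DTT; compound in DMSO pre-dispensed, enzyme added, reaction started with substrate, 60 min at room temperature in the dark.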
On the technique in general: TR-FRET usually uses a lanthanide donor and a delayed reading to cut background.

In a further assay the target is phosphor-Axl (Homo sapiens (Human), UniProt P30530). Briefly: TAM Enzymatic Assay (HTRF), Axl. Particulars: recombinant autophosphorylated Axl, 60 min, room temperature.
The target of a further assay is Tyro3 (Homo sapiens (Human), UniProt Q06418). Briefly: TAM Enzymatic Assay (HTRF), Tyro3. Conditions: Tyro3, 60 min, room temperature. The method in brief: as §1

Bounds are passed on as bounds.

phosphor-Axl, sequence (P30530 26-894): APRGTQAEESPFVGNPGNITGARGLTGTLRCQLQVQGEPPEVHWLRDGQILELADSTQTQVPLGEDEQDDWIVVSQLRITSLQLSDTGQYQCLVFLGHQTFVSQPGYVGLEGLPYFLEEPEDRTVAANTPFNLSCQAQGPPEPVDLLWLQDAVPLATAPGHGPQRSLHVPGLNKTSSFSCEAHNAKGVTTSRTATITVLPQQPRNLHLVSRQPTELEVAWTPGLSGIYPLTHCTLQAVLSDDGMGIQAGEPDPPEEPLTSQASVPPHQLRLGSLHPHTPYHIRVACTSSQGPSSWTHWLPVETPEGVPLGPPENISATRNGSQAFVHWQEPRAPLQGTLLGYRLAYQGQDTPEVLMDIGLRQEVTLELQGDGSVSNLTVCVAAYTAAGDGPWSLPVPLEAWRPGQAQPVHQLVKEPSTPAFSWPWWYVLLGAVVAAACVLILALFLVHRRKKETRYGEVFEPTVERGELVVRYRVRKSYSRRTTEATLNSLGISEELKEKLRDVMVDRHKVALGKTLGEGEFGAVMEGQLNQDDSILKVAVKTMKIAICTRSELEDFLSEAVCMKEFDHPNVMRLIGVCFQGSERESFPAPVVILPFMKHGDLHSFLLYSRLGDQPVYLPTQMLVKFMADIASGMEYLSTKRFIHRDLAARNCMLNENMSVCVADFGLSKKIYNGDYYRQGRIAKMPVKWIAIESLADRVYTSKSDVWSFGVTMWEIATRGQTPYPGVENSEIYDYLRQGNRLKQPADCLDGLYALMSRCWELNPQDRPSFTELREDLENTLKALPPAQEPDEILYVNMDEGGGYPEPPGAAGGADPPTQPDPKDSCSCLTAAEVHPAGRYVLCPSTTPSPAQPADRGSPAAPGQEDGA
c-Mer, sequence (Q12866 21-999): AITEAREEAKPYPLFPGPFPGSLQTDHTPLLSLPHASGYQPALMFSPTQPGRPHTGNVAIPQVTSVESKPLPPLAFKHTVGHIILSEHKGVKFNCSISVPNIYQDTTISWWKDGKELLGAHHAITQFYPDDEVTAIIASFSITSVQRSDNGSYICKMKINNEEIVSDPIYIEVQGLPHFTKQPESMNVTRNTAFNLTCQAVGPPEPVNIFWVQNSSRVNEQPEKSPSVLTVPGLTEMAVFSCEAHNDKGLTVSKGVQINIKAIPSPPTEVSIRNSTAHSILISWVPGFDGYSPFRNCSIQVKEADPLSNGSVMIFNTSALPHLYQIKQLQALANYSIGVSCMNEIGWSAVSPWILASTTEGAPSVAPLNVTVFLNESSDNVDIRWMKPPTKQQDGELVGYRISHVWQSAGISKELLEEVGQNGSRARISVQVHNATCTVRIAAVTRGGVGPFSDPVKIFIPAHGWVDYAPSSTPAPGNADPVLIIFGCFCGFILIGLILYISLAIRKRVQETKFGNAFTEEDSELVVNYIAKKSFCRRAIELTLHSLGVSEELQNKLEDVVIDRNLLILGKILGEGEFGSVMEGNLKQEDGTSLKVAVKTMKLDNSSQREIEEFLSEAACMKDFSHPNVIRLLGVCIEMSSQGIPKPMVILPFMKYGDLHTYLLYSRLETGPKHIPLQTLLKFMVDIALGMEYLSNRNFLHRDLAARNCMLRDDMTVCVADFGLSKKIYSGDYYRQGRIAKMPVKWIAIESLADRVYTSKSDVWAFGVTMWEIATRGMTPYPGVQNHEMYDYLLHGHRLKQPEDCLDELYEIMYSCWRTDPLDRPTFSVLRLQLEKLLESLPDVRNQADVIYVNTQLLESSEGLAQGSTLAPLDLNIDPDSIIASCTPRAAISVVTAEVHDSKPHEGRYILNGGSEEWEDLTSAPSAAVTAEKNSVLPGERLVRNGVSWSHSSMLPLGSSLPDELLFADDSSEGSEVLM
Tyro3, sequence (Q06418 41-890): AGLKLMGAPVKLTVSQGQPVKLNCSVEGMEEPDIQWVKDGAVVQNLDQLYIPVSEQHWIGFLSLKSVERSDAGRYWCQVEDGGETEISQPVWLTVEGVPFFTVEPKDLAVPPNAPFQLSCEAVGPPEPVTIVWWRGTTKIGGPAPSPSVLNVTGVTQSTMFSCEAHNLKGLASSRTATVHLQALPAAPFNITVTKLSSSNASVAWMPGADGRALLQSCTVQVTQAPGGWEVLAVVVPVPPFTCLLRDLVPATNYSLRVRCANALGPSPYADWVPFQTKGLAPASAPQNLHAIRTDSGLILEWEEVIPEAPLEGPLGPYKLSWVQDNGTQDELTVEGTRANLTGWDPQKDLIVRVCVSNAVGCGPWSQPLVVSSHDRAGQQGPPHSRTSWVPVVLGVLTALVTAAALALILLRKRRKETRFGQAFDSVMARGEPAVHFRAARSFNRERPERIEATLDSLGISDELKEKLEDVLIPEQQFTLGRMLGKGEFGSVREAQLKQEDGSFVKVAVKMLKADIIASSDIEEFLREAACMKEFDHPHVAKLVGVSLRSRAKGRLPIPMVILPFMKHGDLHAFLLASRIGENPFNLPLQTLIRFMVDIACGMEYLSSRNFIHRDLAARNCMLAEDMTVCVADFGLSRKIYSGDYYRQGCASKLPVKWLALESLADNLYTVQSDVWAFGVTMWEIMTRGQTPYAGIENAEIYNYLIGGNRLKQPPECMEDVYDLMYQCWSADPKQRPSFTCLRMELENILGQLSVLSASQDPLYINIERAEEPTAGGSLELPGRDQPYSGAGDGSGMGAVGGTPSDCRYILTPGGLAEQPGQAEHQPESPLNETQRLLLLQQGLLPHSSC

As usually defined, the IC50 is the concentration that inhibits the measured activity by half. For `CS(=O)(=O)N1CCC(c2cc(-c3ccc(NC(=O)c4cccn(-c5ccc(F)cc5)c4=O)cc3)c3c(N)ncnn23)CC1` [Example 41, N-(4-{4-Amino-7-[1-(methylsulfonyl)piperidin-4-yl]pyrrolo[2,1-f][1,2,4]triazin-5-yl}phenyl)-1-(4-fluorophenyl)-2-oxo-1,2-dihydropyridine-3-carboxamide], the IC50 against c-Mer is at most 5 nM; on phosphor-Axl, at most 5 nM; at Tyro3, 10 to 100 nM.
As to `Nc1ncnn2c1c(-c1ccc(NC(=O)c3cccn(-c4ccc(F)cc4)c3=O)cc1F)cc2[C@H]1CC[C@@H](O)CC1` [Example 19, N-{4-[4-Amino-7-(cis-4-hydroxycyclohexyl)pyrrolo[2,1-f][1,2,4]triazin-5-yl]-3-fluorophenyl}-1-(4-fluorophenyl)-2-oxo-1,2-dihydropyridine-3-carboxamide], the half-maximal inhibitory concentration (IC50) on c-Mer, at phosphor-Axl and at Tyro3 was at most 5 nM in each case.
On to `CC(C)C(=O)N1CCC(c2cc(-c3ccc(NC(=O)c4cc5c(n(-c6cncc(F)c6)c4=O)CCCC5=O)cc3)c3c(N)ncnn23)CC1` [Example 113, N-(4-(4-Amino-7-(1-isobutyrylpiperidin-4-yl)pyrrolo[1,2-f][1,2,4]triazin-5-yl)phenyl)-1-(5-fluoropyridin-3-yl)-2,5-dioxo-1,2,5,6,7,8-hexahydroquinoline-3-carboxamide], for which the results for the IC50 against c-Mer, at phosphor-Axl and against Tyro3 were at most 5 nM, at most 5 nM and 10 to 100 nM, respectively.
On to `Cc1c(Br)cc(C(=O)Nc2ccc(-c3cc(C4CCN(C(=O)C(C)C)CC4)n4ncnc(N)c34)cc2)c(=O)n1-c1cncc(F)c1` [Example 101, N-(4-(4-Amino-7-(1-isobutyrylpiperidin-4-yl)pyrrolo[1,2-f][1,2,4]triazin-5-yl)phenyl)-5-bromo-1-(5-fluoropyridin-3-yl)-6-methyl-2-oxo-1,2-dihydropyridine-3-carboxamide], for which the IC50 on c-Mer is at most 5 nM; at phosphor-Axl, at most 5 nM; against Tyro3, over 100 nM.
On to `CCN(C)C(=O)N1CCC(c2cc(-c3ccc(NC(=O)c4cn(C(C)C)c(=O)n(-c5ccccc5)c4=O)cc3)c3c(N)ncnn23)CC1` [Example 62, N-(4-(4-Amino-7-(1-(ethyl(methyl)carbamoyl)piperidin-4-yl)pyrrolo[1,2-f][1,2,4]triazin-5-yl)phenyl)-1-isopropyl-2,4-dioxo-3-phenyl-1,2,3,4-tetrahydropyrimidine-5-carboxamide], for which the IC50 on c-Mer is at most 5 nM; on phosphor-Axl, at most 5 nM; at Tyro3, 10 to 100 nM.
As to `Cc1c(-c2ncccn2)cc(C(=O)Nc2ccc(-c3cc(C4CCN(C(=O)C(C)C)CC4)n4ncnc(N)c34)cc2)c(=O)n1-c1ccccc1` [Example 108, N-{4-[4-Amino-7-(1-isobutyrylpiperidin-4-yl)pyrrolo[2,1-f][1,2,4]triazin-5-yl]phenyl}-6-methyl-2-oxo-1-phenyl-5-pyrimidin-2-yl-1,2-dihydropyridine-3-carboxamide], the values for the IC50 on c-Mer, at phosphor-Axl and at Tyro3 were at most 5 nM, at most 5 nM and 10 to 100 nM, respectively.
As to `CC(C)n1cc(C(=O)Nc2ccc(-c3cc(C4CCC(N(C)C)CC4)n4ncnc(N)c34)cc2)c(=O)n(-c2ccccc2)c1=O` (stereo not drawn) [Example 93, N-(4-(4-Amino-7-(4-(dimethylamino)cyclohexyl)pyrrolo[2,1-f][1,2,4]triazin-5-yl)phenyl)-1-isopropyl-2,4-dioxo-3-phenyl-1,2,3,4-tetrahydropyrimidine-5-carboxamide], the IC50 against c-Mer, at phosphor-Axl and at Tyro3 was at most 5 nM throughout.
Regarding `Cc1c(-c2ccn(C)n2)cc(C(=O)Nc2ccc(-c3cc(C4CCN(C(=O)C(C)C)CC4)n4ncnc(N)c34)cc2)c(=O)n1-c1cccnc1` [Example 135, N-(4-(4-Amino-7-(1-isobutyrylpiperidin-4-yl)pyrrolo[2,1-f][1,2,4]triazin-5-yl)phenyl)-6-methyl-5-(1-methyl-1H-pyrazol-3-yl)-2-oxo-2H-[1,3′-bipyridine]-3-carboxamide], the IC50 was at most 5 nM against c-Mer, at most 5 nM on phosphor-Axl and over 100 nM at Tyro3.
Turning to `CC(=O)N1CCC(c2cc(-c3ccc(NC(=O)c4cccn(-c5ccc(F)cc5)c4=O)cc3)c3c(N)ncnn23)CC1` [Example 25, N-{4-[7-(1-Acetylpiperidin-4-yl)-4-aminopyrrolo[2,1-f][1,2,4]triazin-5-yl]phenyl}-1-(4-fluorophenyl)-2-oxo-1,2-dihydropyridine-3-carboxamide], the results for the IC50 against c-Mer, at phosphor-Axl and against Tyro3 were at most 5 nM, at most 5 nM and 10 to 100 nM, respectively.
Consider `Nc1ncnn2c(C3CCN(CCO)CC3)cc(-c3ccc(NC(=O)c4cccn(-c5ccccc5)c4=O)cc3F)c12` [Example 54], for which the IC50 at c-Mer was at most 5 nM; on phosphor-Axl, at most 5 nM; against Tyro3, 10 to 100 nM.
For the molecule `Cc1c(C#N)cc(C(=O)Nc2ccc(-c3cc(C4CCN(C(=O)C(C)C)CC4)n4ncnc(N)c34)cc2)c(=O)n1-c1ccccc1` [Example 111, N-(4-(4-Amino-7-(1-isobutyrylpiperidin-4-yl)pyrrolo[2,1-f][1,2,4]triazin-5-yl)phenyl)-5-cyano-6-methyl-2-oxo-1-phenyl-1,2-dihydropyridine-3-carboxamide], the IC50 at c-Mer was at most 5 nM; at phosphor-Axl it was at most 5 nM; at Tyro3 it was over 100 nM.
As for `CC(=O)N1CCC(c2cc(-c3ccc(NC(=O)c4cccn(-c5ccccc5)c4=O)cc3)c3c(N)ncnn23)CC1` [Example 24, N-{4-[7-(1-Acetylpiperidin-4-yl)-4-aminopyrrolo[2,1-f][1,2,4]triazin-5-yl]phenyl}-2-oxo-1-phenyl-1,2-dihydropyridine-3-carboxamide], the IC50 is at most 5 nM against c-Mer, at most 5 nM at phosphor-Axl and 10 to 100 nM on Tyro3.
With `CC(C)n1cc(C(=O)Nc2ccc(-c3cc(C4CCN(C)CC4)n4ncnc(N)c34)cc2)c(=O)n(-c2ccccc2)c1=O` [Example 64, N-(4-(4-Amino-7-(1-methylpiperidin-4-yl)pyrrolo[1,2-f][1,2,4]triazin-5-yl)phenyl)-1-isopropyl-2,4-dioxo-3-phenyl-1,2,3,4-tetrahydropyrimidine-5-carboxamide], the figures for the IC50 against c-Mer, on phosphor-Axl and against Tyro3 were at most 5 nM, at most 5 nM and 10 to 100 nM, respectively.
Consider `COCc1c(Br)cc(C(=O)Nc2ccc(-c3cc(C4CCN(C(=O)C(C)C)CC4)n4ncnc(N)c34)cc2)c(=O)n1-c1ccccc1` [Example 136, N-(4-(4-Amino-7-(1-isobutyrylpiperidin-4-yl)pyrrolo[2,1-f][1,2,4]triazin-5-yl)phenyl)-5-bromo-6-(methoxymethyl)-2-oxo-1-phenyl-1,2-dihydropyridine-3-carboxamide], for which the IC50 was at most 5 nM against c-Mer, at most 5 nM on phosphor-Axl and over 100 nM against Tyro3.
For `CC(C)C(=O)N1CCC(c2cc(-c3ccc(NC(=O)c4nn(C(C)C)c(=O)n(-c5ccccc5)c4=O)cc3)c3c(N)ncnn23)CC1` [Example 96, N-(4-(4-Amino-7-(1-isobutyrylpiperidin-4-yl)pyrrolo[1,2-f][1,2,4]triazin-5-yl)phenyl)-2-isopropyl-3,5-dioxo-4-phenyl-2,3,4,5-tetrahydro-1,2,4-triazine-6-carboxamide], the IC50 at c-Mer was at most 5 nM; at phosphor-Axl, at most 5 nM; on Tyro3 it was 10 to 100 nM.
Consider `CC(C)C(=O)N1CCC(c2cc(-c3ccc(NC(=O)c4cn(C(C)C)c(=O)n(-c5cnn(C)c5)c4=O)cc3)c3c(N)ncnn23)CC1` [Example 87, N-(4-(4-Amino-7-(1-isobutyrylpiperidin-4-yl)pyrrolo[2,1-f][1,2,4]triazin-5-yl)phenyl)-1-isopropyl-3-(1-methyl-1H-pyrazol-4-yl)-2,4-dioxo-1,2,3,4-tetrahydropyrimidine-5-carboxamide], for which the IC50 at c-Mer is at most 5 nM; on phosphor-Axl, at most 5 nM; against Tyro3, over 100 nM.
As for `Cc1cc(C(=O)Nc2ccc(-c3cc(C4CCN(C(=O)C(C)C)CC4)n4ncnc(N)c34)cc2)c(=O)n(-c2cccnc2)c1C` [Example 132, N-(4-(4-Amino-7-(1-isobutyrylpiperidin-4-yl)pyrrolo[2,1-f][1,2,4]triazin-5-yl)phenyl)-5,6-dimethyl-2-oxo-2H-[1,3′-bipyridine]-3-carboxamide], the IC50 against c-Mer was at most 5 nM; at phosphor-Axl it was at most 5 nM; on Tyro3, over 100 nM.
Take `Cc1c(C(F)F)cc(C(=O)Nc2ccc(-c3cc(C4CCN(C(=O)C(C)C)CC4)n4ncnc(N)c34)cc2)c(=O)n1-c1ccccn1` [Example 127, N-(4-(4-Amino-7-(1-isobutyrylpiperidin-4-yl)pyrrolo[2,1-f][1,2,4]triazin-5-yl)phenyl)-5-(difluoromethyl)-6-methyl-2-oxo-2H-[1,2′-bipyridine]-3-carboxamide]: the IC50 is at most 5 nM against c-Mer, at most 5 nM at phosphor-Axl and over 100 nM against Tyro3.
Regarding `Cc1c(-c2ccn(C)n2)cc(C(=O)Nc2ccc(-c3cc(C4CCN(C(=O)C(C)C)CC4)n4ncnc(N)c34)cc2)c(=O)n1-c1ccccn1` [Example 125, N-(4-(4-Amino-7-(1-isobutyrylpiperidin-4-yl)pyrrolo[2,1-f][1,2,4]triazin-5-yl)phenyl)-6-methyl-5-(1-methyl-1H-pyrazol-3-yl)-2-oxo-2H-[1,2′-bipyridine]-3-carboxamide], the IC50 at c-Mer is at most 5 nM; at phosphor-Axl it was at most 5 nM; on Tyro3 it was over 100 nM.
As to `Nc1ncnn2c(C3CCNCC3)cc(-c3ccc(NC(=O)c4cccn(-c5ccc(F)cc5)c4=O)cc3F)c12` [Example 35, N-[4-(4-Amino-7-piperidin-4-ylpyrrolo[2,1-f][1,2,4]triazin-5-yl)-3-fluorophenyl]-1-(4-fluorophenyl)-2-oxo-1,2-dihydropyridine-3-carboxamide], the IC50 was at most 5 nM against c-Mer, at most 5 nM at phosphor-Axl and 5 to 10 nM against Tyro3.
